Test results taken from US20220062258A1, “Heterocyclic derivatives” (Merck Patent GmbH, priority 2019, published 2022).

Assays:
[1] = tested on: HUVEC primary endothelial cells; experiment: HUVEC proliferation assay (CyQUANT Direct); type: cell-based; details: Homo sapiens, 72 h, 3 days incubation
Protocol: HUVEC Proliferation Assay
Proliferation of HUVEC primary endothelial cells was used as cell-based mechanistical assay.^25 Applying the CyQUANT@ Direct Cell Proliferation Assay (Invitrogen C35011) which is based on a cell-permeant fluorescent DNA-binding dye, DNA content is used as a direct measure for cell number. Pooled HUVEC cells (Promocell C-12203) are cultivated in the medium supplied by Promocell (Cat No C-22020) for maximum 4 passages. For the assay 500 cells/well are seeded into black 384-well culture plates with clear bottom in 70 μl culture medium and incubated for 6 hours at 37° C., 5% CO2. 10 μl prediluted test compounds are added and cells incubated for 3 days at 37° C., 5% CO2 before measurement of DNA content. CyQUANT detection reagent is prepared according to the manufacturers protocol, 20 μl/well added and incubated at 37° C., 5% CO2 for at least 1 h before measurement of fluorescence at Envision multimode reader (Perkin-Elmer, Waltham) with excitation 480 nm and emission 535 nm (bottom read mode). The assay is performed as dose response with 10 compound dilutions. Inhibitory values (IC50) were determined using the program ASSAY ANALYZER® from GeneData (Basel, Switzerland).

MetAP-2 [2] = biological target: T1, MetAP-2 (Homo sapiens, UniProt P50579); experiment: Biochemical activity testing of MetAP-2 (enzyme-coupled assay, Met-Ala-Ser substrate); parameters: N-terminal His tag human rec MetAP2 (prepared in house, AA 2-478, final concentration (fc) 123 nM); His tag (N); TEV cleavage site (N); made in house
Protocol: Biochemical Activity Testing of MetAP-2
MetAP-2 activity was determined by an enzyme-coupled assay using the tripeptide Met-Ala-Ser (MAS) as substrate and recombinant human MetAP-2 (His-Tev-MetAP-2, prepared at Merck). The released methionine is converted by L-amino acid oxidase (AAO) to oxidized Methionine and hydrogen peroxide is released. In a second step horse radish peroxidase catalyzes the oxidation of the leuko dye dianisidine to oxidized dianisidine using hydrogen peroxide as co-substrate. The produced dianisidine ox was detected photometrically as increase in absorbance at 450 nm. Met-AP2 activity was determined in a kinetic measurement mode. The release of one molecule methionine corresponds to the production of one molecule dianisidine ox. The MetAP2 enzymatic activity is directly corresponding to the increase in absorbance per time.
In detail, the assay was performed in 384 well microtiter plate (Greiner 78110 MTP, transparent) in a total reaction volume of 50 μl at 22° C. 0.35 μg of N-terminal His tag human rec MetAP2 (prepared in house, AA 2-478, final concentration (fc) 123 nM), 1 unit horse radish Peroxidase (Roche, Mannheim), 0.02 unit L-amino acid oxidase (Merck, Darmstadt), 0.6 mM dianisidine (Merck, Darmstadt, dissolved in 50 mM HCl, 10% DMSO) were incubated in the absence or presence of the test compound (10 dilution concentrations) in 100 mM Hepes, 50 mM NaCl, 50 μM MnCl2 at pH 7.0 for 15 min at 22° C. The reaction was started by the addition of 500 μM (fc) MAS peptide (Merck, Darmstadt). After mixing the first absorbance measurement was performed on an Envision multimode reader (Perkin-Elmer, Waltham) at wavelength of 450 nm. The reaction was incubated at 22° C. for additional 45 min and the second absorbance measurement was performed. The increase of absorbance per time was determined. The control value used was the inhibitor-free reaction with 0.5% DMSO (fc). As pharmacological inhibitor control Fumagillin (Merck, Darmstadt) in a final concentration of 5 μM was used. The inhibitory values (IC50) were determined using the program ASSAY ANALYZER® from GeneData (Basel, Switzerland).
Target sequence in this assay (P50579 2-478): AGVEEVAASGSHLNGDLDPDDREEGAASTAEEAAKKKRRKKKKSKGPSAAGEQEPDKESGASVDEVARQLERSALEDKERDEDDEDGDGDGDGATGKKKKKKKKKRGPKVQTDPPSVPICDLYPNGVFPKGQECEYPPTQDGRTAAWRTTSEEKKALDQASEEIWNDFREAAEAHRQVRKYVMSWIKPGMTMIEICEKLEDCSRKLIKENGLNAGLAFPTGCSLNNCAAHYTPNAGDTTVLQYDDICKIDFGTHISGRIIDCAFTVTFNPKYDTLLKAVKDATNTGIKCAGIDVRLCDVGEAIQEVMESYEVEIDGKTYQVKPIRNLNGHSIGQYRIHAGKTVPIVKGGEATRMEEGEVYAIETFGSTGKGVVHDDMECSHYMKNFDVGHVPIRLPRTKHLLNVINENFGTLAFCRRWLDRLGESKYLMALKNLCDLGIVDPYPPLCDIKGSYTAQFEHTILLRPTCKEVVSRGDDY

MetAP-2 [3] = biological target: T1, MetAP-2; experiment: Degradation of MetAP-2 in HCT116 cells (Western blot, MetAp2/GAPDH signal); type: cell-based; parameters: endogenous in cells; host or cells: HCT116; details: 0.1 μM, 24 hrs, HTC116 cells; <1 means degradation
Protocol: See scans below. […] The initial MetAP-2 degradation results were obtained after 24 h incubation of the compounds in three different concentrations (0.1; 1; 10 μM), cell lysis, SDS-PAGE separation, blotting and antibody aided detection.
Comparison of MetAP2 protein levels in HTC116 cells after compound treatments at different concentrations and time points. As control, DMSO was used and its values set as “1”. MetAp2 values <1 means degradation.
2. Exemplary Testing of the Compound
HCT116 cells were sown in 6-well plates. Pipette 1 mL fresh medium to every well and incubate for at least 1 h (37° C., 5% CO2, 95% rH).
Harvest and count cells in Vi-Cell. Equinr. 70198475 Adjust cell concentration to 0.35e^6 cells/mL and add 1 mL of cell suspension (total 0,35e^6 cells/well).
Incubate cells for 24 hours (37° C., 5% CO2, 95% rH)
HCT116: 24 h: ˜50% confluent before treatment
Compounds will be thawed the first time, stock: 10 mM; final concentration: 10 μM & 1 μM & 0.1 μM
Treatment with DMSO based solution with Digital Dispenser: HCT116 platte 2A1.jpg_meta.xml • create new dispensing protocol for compound • apply name of test compound and its stock concentration (in mM) for testing • 3×1:10 dilution series • final 0.3% DMSO, DMSO normalization for every well • shaking after compound/DMSO addition
Incubate cells for further 24 hours (37° C., 5% C02, 95% rH)
HCT116: 70-80% confluent before lysis • after incubation cells were lysed with RIPA lysis buffer including Halt™
all steps performed on ice or at 4° C. • aspirate supernatant from cells • wash cells twice with 2.0 mL ice cold PBS buffer • aspirate supernatant from cells after each washing step • lyse cells with 100 μL Ripa lysis buffer per well • scrape cells with cell scraper and transfer lysates to Eppendorf Cups • incubate for 15 min on ice • centrifuge […] at 13000×g and 4° C. • transfer supernatants to fresh Eppendorf cups • removal of 20 μL lysate for BCA assay • aliquot and freeze at −20° C.
Determination of protein concentration of lysates with BCA Protein Assay Kit. BSA supplied with the kit is 2 mg/mL.
Dilute the standard (Stock BSA concentration=2 mg/mL) in a 96 well plate: Samples were run 1:4. Dilute in lysing buffer, lysing buffer alone was run to determine the background from detergents in the assay.
BCA reagent: Dilute Reagent A and Reagent B in a 1:50 ratio. To 9.8 mL A add 200 μL B.
Assay Procedure: Pipette 5 μL/well of standard or samples to 96 wells (see plate layout). Samples were run in duplicate. Blanks=5 μL/well PBS or 5 μL/well lysing buffer. Add 100 μL/well of the prepared BCA reagent. Tap plate to mix or shake for 1-2 min on the Eppendorf mixer. Incubate at 37° C. for 30 min.
Read the OD at 562 nm. Plate was read on EnVision 2104 Multilabel Reader (Perkin Elmer, Equipment Number 70160330) last verification of instrument 17.08.2017 (once a year) (A25/531). AEH181012_BCA.csv
In EXCEL the duplicates were averaged and the average background PBS was subtracted for the standard curve.
A trend line was created, the intercept (b) was set at 0. The R^2 should be >0.950 for acceptable results. The lysate buffer blank was subtracted from the test values and the averaged, background-corrected O.D. values were used with the equation to calculate mg/ml and then were corrected for the dilution factor for the final mg/mL value. Only results from OD values within the range of the standard curve are acceptable. Values outside of the standard curve range are ignored. BCA AEH00350 Berechnung.xlsx
6. Sample Calculation and Preparation • thaw lysates of AEH00350 on ice • calculate sample volume for Western Blot loading 10 μg total protein/13 μL per slot: • dilute samples with lysis buffer and 10× reducing agent & 4×LDS buffer to 10 μg. • heat them at 70° C. for 10 min and 1000 rmp
Target sequence in this assay (P50579 whole entry, the tested form may be a part): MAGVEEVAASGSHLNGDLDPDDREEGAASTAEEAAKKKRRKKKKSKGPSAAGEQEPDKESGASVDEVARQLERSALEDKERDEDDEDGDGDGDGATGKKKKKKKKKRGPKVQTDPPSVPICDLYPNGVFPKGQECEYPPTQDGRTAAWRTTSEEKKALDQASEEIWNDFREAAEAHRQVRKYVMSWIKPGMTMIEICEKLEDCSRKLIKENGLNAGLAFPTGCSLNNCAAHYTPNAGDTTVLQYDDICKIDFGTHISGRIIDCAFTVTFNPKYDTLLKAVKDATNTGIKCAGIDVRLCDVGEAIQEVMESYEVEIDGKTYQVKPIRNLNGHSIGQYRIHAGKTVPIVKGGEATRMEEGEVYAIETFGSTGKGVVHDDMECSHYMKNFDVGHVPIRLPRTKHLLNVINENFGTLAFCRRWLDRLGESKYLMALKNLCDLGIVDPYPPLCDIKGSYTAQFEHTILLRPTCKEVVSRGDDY
7. […]

MetAP-2 [4] = biological target: T1, MetAP-2; experiment: as above; type: cell-based; parameters: endogenous in cells; host or cells: HCT116; details: 0.1 μM, 6 hrs, HTC116 cells; <1 means degradation
Target sequence in this assay (P50579 whole entry, the tested form may be a part): as above

| Structure (SMILES) | IC50 (MetAP-2 [2]) | Signal MetAp2/GAPDH normalized to untreated (DMSO) (MetAP-2 [3]) | Signal MetAp2/GAPDH normalized to untreated (DMSO) (MetAP-2 [4]) | IC50 [1] |
| --- | --- | --- | --- | --- |
| Cc1ncsc1-c1ccc(CNC(=O)[C@@H]2C[C@@H](O)CN2C(=O)[C@@H](NC(=O)CCCCCNC(=O)c2cc3cc(N4CC[C@@](O)(C(=O)NCc5cc(F)cc(F)c5)C4=O)ccc3[nH]2)C(C)(C)C)cc1 (mixture of isomers) [Compound A3, (3RS)—N-[(3,5-difluorophenyl)methyl]-3-hydroxy-1-{2-[(5-{[(2S)-1-[(2S,4R)-4-hydroxy-2-({[4-(4-methyl-1,3-thiazol-5-yl)phenyl]methyl}carbamoyl)pyrrolidin-1-yl]-3,3-dimethyl-1-oxobutan-2-yl]carbamoyl}pentyl)carbamoyl]-1H-indol-5-yl}-2-oxopyrrolidine-3-carboxamide] | 0.55 µM |  |  | 30 µM |
| O=C1CCC(N2C(=O)c3ccc(NCCCCCNC(=O)c4cc5cc(N6CCC(O)(C(=O)NCc7cc(F)cc(F)c7)C6=O)ccc5[nH]4)cc3C2=O)C(=O)N1 (centres unmarked) [Compound A4, 5-[3-[(3,5-difluorophenyl)methylcarbamoyl]-3-hydroxy-2-oxo-pyrrolidin-1-yl]-N-[5-[[2-(2,6-dioxo-3-piperidyl)-1,3-dioxo-isoindolin-5-yl]amino]pentyl]-1H-indole-2-carboxamide] | 0.48 µM |  |  | 1.6 µM |
| O=C1CCC(N2C(=O)c3cccc(NCCOCCOCCNC(=O)c4cc5cc(N6CCC(O)(C(=O)NCc7cc(F)cc(F)c7)C6=O)ccc5[nH]4)c3C2=O)C(=O)N1 (centres unmarked) [Compound A5, 5-[3-[(3,5-difluorophenyl)methylcarbamoyl]-3-hydroxy-2-oxo-pyrrolidin-1-yl]-N-[2-[2-[2-[[2-(2,6-dioxo-3-piperidyl)-1,3-dioxo-isoindolin-4-yl]amino]ethoxy]-ethoxy]ethyl]-1-H-indole-2-carboxamide] | 0.33 µM |  |  | 5.8 µM |
| Cc1ncsc1-c1ccc(CNC(=O)[C@@H]2C[C@@H](O)CN2C(=O)[C@@H](NC(=O)COCCOCCNC(=O)c2cc3cc(N4CCC(O)(C(=O)NCc5cc(F)cc(F)c5)C4=O)ccc3[nH]2)C(C)(C)C)cc1 (stereo partly drawn) [Compound A6, 5-[3-[(3,5-difluorophenyl)methylcarbamoyl]-3-hydroxy-2-oxo-pyrrolidin-1-yl]-N-[2-[2-[2-[[(1S)-1-[(2S,4R)-4-hydroxy-2-[[4-(4-methylthiazol-5-yl)phenyl]methylcarbamoyl]pyrrolidine-1-carbonyl]-2,2-dimethyl-propyl]amino]-2-oxoethoxy]ethoxy]ethyl]-1H-indole-2-carboxamide] | 0.37 µM |  |  | 30 µM |
| Cc1ncsc1-c1ccc(CNC(=O)[C@@H]2C[C@@H](O)CN2C(=O)[C@@H](NC(=O)COCCOCCOCCOCCNC(=O)c2cc3cc(N4CCC(O)(C(=O)NCc5cc(F)cc(F)c5)C4=O)ccc3[nH]2)C(C)(C)C)cc1 (some centres unmarked) [Compound A7] | 0.32 µM |  |  | 7.3 µM |

Second part, led by results:

| IC50 (MetAP-2 [2]) | Signal MetAp2/GAPDH normalized to untreated (DMSO) (MetAP-2 [3]) | Signal MetAp2/GAPDH normalized to untreated (DMSO) (MetAP-2 [4]) | Structure (SMILES) | IC50 [1] |
| --- | --- | --- | --- | --- |
| 0.33 µM |  |  | Cc1ncsc1-c1ccc(CNC(=O)[C@@H]2C[C@@H](O)CN2C(=O)[C@@H](NC(=O)COCCOCCOCCOCCOCCNC(=O)c2cc3cc(N4CCC(O)(C(=O)NCc5cc(F)cc(F)c5)C4=O)ccc3[nH]2)C(C)(C)C)cc1 (stereo partly drawn) [Compound A8, 5-[3-[(3,5-difluorophenyl)methylcarbamoyl]-3-hydroxy-2-oxo-pyrrolidin-1-yl]-N-[2-[2-[2-[2-[2-[2-[[(1S)-1-[(2S,4R)-4-hydroxy-2-[[4-(4-methylthiazol-5-yl)phenyl]-methylcarbamoyl]pyrrolidine-1-carbonyl]-2,2-dimethyl-propyl]amino]-2-oxoethoxy]ethoxy]ethoxy]ethoxy]ethoxy]ethyl]-1H-indole-2-carboxamide] | 30 µM |
|  | 1.2 | 1.3 | O=C1CCC(N2C(=O)c3cccc(NCCOCCOCCOCCOCCOCCNC(=O)c4cc5cc(N6CC(O)C(O)(C(=O)NCc7cc(F)cc(F)c7)C6=O)ccc5[nH]4)c3C2=O)C(=O)N1 (centres unmarked) [Compound A21, 5-[3-[(3,5-difluorophenyl)methylcarbamoyl]-3,4-dihydroxy-2-oxo-pyrrolidin-1-yl]-N-[2-[2-[2-[2-[2-[2-[[2-(2,6-dioxo-3-piperidyl)-1,3-dioxo-isoindolin-4-yl]amino]ethoxy]ethoxy]ethoxy]ethoxy]ethoxy]ethyl]-1H-indole-2-carboxamide] |  |
